Publication PMC12388496, “Discovery of (E)-1,3-Diphenyl-2-Propen-1-One Derivatives as Potent and Orally Active NLRP3 Inflammasome Inhibitors for Colitis” (Molecules, 2025)

Legend:
[1] = tested on: IL-1β secretion in BMDM cells (NLRP3 inflammasome); assay: ELISA of IL-1β secretion in LPS/nigericin-treated BMDM cells; format: cell-based; conditions: Mus musculus
Procedure: When L929 cells reach the logarithmic phase, collect the cell supernatant. Filter the supernatant using a 0.22 μm filter and store it at −20 °C for future use. The 7-week-old C57BL/6 mice were selected as the source of primary bone marrow macrophages. The mice were euthanized using the cervical dislocation method. The ends of the femurs were cut, and the bone marrow was flushed into a 15 mL centrifuge tube using a 5 mL syringe. Once all the bone marrow was collected, an appropriate amount of red blood cell lysis buffer was added to the centrifuge tube. The mixture was incubated for 3–5 min, with repeated pipetting to thoroughly lyse the red blood cells. The cells were then centrifuged and collected. Add 30–40% L929 cell supernatant or M-CSF stimulatory factor to the culture dish. Culture the cells in a cell incubator at 37 °C with 5% CO2. Observe the cell condition daily, and once most cells have adhered to the surface, proceed with subsequent experiments.
Inoculate 1.0 × 10^5 BMDMs cells per well into a 96 well plate and culture overnight. Stimulate the cells with lipopolysaccharide (LPS) at a concentration of 0.2 μg/mL for 3 h, then add different concentrations of the test compounds and incubate for 30 min. Finally, add Nigericin at a concentration of 10 μM to continue the induction for 30 min. Collect the cell supernatant and measure the IL-1β secretion level in the supernatant using an ELISA kit, following the instructions provided, and calculate the IC50 value based on the relevant calculations. To ensure the accuracy and reliability of the experimental results, all experiments were repeated three times, with each experiment performed independently.

THP-1 cells = assay: LDH release assay; format: cell-based; conditions: NLRP3 inflammasome activation by LPS/Nigericin
Description: Pyroptosis is a form of programmed cell death, typically triggered by the activation of inflammasomes within the cell. It is characterized by the rupture of the cell membrane, releasing cellular contents (such as Lactate Dehydrogenase, LDH), which enhances the inflammatory response. Unlike apoptosis, pyroptosis is initiated through the activation of inflammasomes, involving distinct molecular mechanisms, and is often accompanied by cell swelling and rupture. In contrast, apoptosis is triggered by the activation of Caspase-3, leading to systemic degradation within the cell while maintaining the integrity of the cell membrane. The cell undergoes controlled self-degradation without provoking an immune response. Inhibiting pyroptosis is crucial for alleviating inflammation and promoting tissue repair. To investigate the effect of compound F14 on pyroptosis, we employed flow cytometry and lactate dehydrogenase (LDH) release assays for systematic analysis. Flow cytometry was used to assess the impact of F14 on pyroptosis under inflammatory conditions.
Count the THP-1 cells and inoculate them into a 96-well plate. Add 50 ng/mL PMA and culture the cells at 37 °C in a 5% CO2 incubator for 24 h. Add LPS-containing medium and stimulate the cells for 3 h to induce an inflammatory response. Add F14 and incubate for 1 h, then add Nigericin and stimulate for 30 min to induce pyroptosis. […]

AIM2 inflammasome = AIM2 inflammasome activation induced by poly (dA:dT) in BMDMs; format: cell-based, mouse; conditions: F14 10 μM, LPS-primed BMDMs
Description: The NLRP3 inflammasome can be activated by various stimuli, such as microbial toxins and urate crystals. This process plays a central role in the pathogenesis of many inflammatory diseases. To assess whether F14 exerts a broad-spectrum inhibitory effect on NLRP3 inflammasome activation, we used three different activators—ATP, MSU, and Nigericin to stimulate BMDMs. […] Among the inflammasome family, NLRC4 and AIM2 are also protein complexes involved in the innate immune response, playing key roles in inflammatory regulation during infection and tissue damage. Poly (dA:dT) was used to induce AIM2 activation, while S.typhi was employed to stimulate NLRC4 activation. […].
The LPS concentration was 200 ng/mL to pretreat BMDM cells for 3 h, then F14 (10 μM) was added to treat the cells for 30 min, and then each inducer—Nigericin (10 μM, 0.5 h), ATP (2.5 mM, 0.5 h), MSU (150 μg/mL, 4 h), S.typhi (4 h), and poly-(dA:dT) (0.5 μg/mL, 4 h)—were added for stimulation. (A) F14 has a broad-spectrum inhibitory effect on NLRP3 inflammasome activation. (B) F14 has a specific inhibitory effect on NLRP3 inflammasome activation. Data are presented as the mean ± SEM (n = 3). *** p < 0.001 vs. the model group. NS, not significant.

[2] = tested on: DSS-induced acute colitis; assay: DSS-induced acute colitis in mice; format: in vivo, mouse; conditions: 10 and 20 mg/kg daily, gavage
Procedure: To further validate the in vivo biological activity of compound F14, we used the DSS-induced mouse colitis model to assess its anti-inflammatory effects. The experimental design was as follows: mice were divided into the normal group, model group (DSS), positive control group (DSS + sulfasalazine), low-dose group (DSS + 10 mg/kg), and high-dose group (DSS + 20 mg/kg). Mice in the normal group were given regular water with no treatment; the positive control group received sulfasalazine as the positive drug at a daily dose of 200 mg/kg; the low-dose and high-dose groups were administered 10 mg/kg and 20 mg/kg of F14, respectively, each day. During the experiment, acute colitis in mice was induced by drinking water containing 3% DSS […]. The mice’s body weight changes, fecal blood presence, and disease activity index (DAI) were recorded daily. […] Goblet cells are a type of colon epithelial cell, and their primary function is to secrete mucus, which helps maintain the stability of the intestinal environment. During the pathological process of colitis, the number of goblet cells decreased, and their mucus-secreting function was impaired. In histological examinations, the number and secretion function of goblet cells are important indicators of colitis.
Male C57BL/6 mice, 18–20 g, were purchased from Charles River (China). All experiments and animal care procedures were approved by the Animal Resource Center of Anhui Medical University by the National Institutes of Health Guide for the Care and Use of Laboratory Animals (20230875). This study used DSS induction to establish an acute colitis model in mice. Mice in the experimental group were given free access to a 3% DSS solution for 7 days to induce an intestinal inflammation phenotype. The positive control group (sulfasalazine, 200 mg/kg) and the treatment group were gavage administration daily, using a 0.5% carboxymethyl cellulose sodium (CMC-Na) solution as the drug vehicle. The normal control and model groups received an equal volume of blank CMC-Na solution. Daily monitoring of weight changes and clinical symptoms was performed during the experimental period, including fecal characteristics (formed/loose/watery stools) and the degree of rectal bleeding (occult blood/gross blood in feces). On day 10, at the end of the experiment, the colonic sections of the mice were carefully excised. The excised colon was examined, and the length of the colon was measured. Some colon tissues were fixed in 4% formaldehyde and used for HE staining and immunohistochemical analysis for subsequent evaluations.

Cc1ccc(C(=O)/C=C/c2cccc(O)c2)c(C)c1 [Compound F14, (E)-1-(2,4-dimethylphenyl)-3-(3-hydroxyphenyl)propyl-2-en-1-one]
inhibition at 20 µM ([1]; 20 µM, LPS/nigericin-treated BMDM cells, mean ± S.E.M. (n = 3), read-out: IL-1β Inhibition Rate (%)): 95.4 ± 2.56% | IC50 ([1]; BMDM, LPS/nigericin, three independent experiments, read-out: IL-1β release IC50 in BMDMs): 740 nM | LDH release (THP-1 cells): decreased in a concentration-dependent manner | activation of AIM2 inflammasome (AIM2 inflammasome): no effect | colonic adhesion ([2]; DSS mice): effectively alleviated | goblet cells in colon tissue (histology) ([2]; DSS mice): inhibits the reduction | disease activity index (DAI) ([2]; vs model group (DSS)): inhibits the increase | weight loss in mice ([2]; vs model group (DSS)): significantly alleviates
